The text below walks through data of publication PMC6487966, “Streptococcal dTDP‐L‐rhamnose biosynthesis enzymes: functional characterization and lead compound identification” (Molecular Microbiology, 2019).

A word on the Kd: it is the free concentration of one partner at which half of the binding sites on the other are occupied at equilibrium, for simple one-to-one binding.

Common to all, as to test: bio-layer interferometry, dilution series on biotinylated recombinant enzyme
Assay type in all cases: binding
In general terms: In BLI a coated tip is dipped into the sample, and binding shifts an interference pattern.

Assay [1] has as its target GacA (RmlD, dTDP‐4‐dehydrorhamnose reductase) (Streptococcus pyogenes, UniProt Q9A0G6).
In assay [2] the target is T1, RmlC (dTDP‐4‐keto‐6‐deoxyglucose‐3,5‐epimerase) (Streptococcus pyogenes, UniProt Q5XCG7).
T1 construct: gene rfbC

Assay [3] addresses T2, RmlB (dTDP‐glucose‐4,6‐dehydratase) (Streptococcus pyogenes, UniProt Q9A045).
T2 construct: gene cpsFQ

T2 sequence (Q9A045 entry or part of it): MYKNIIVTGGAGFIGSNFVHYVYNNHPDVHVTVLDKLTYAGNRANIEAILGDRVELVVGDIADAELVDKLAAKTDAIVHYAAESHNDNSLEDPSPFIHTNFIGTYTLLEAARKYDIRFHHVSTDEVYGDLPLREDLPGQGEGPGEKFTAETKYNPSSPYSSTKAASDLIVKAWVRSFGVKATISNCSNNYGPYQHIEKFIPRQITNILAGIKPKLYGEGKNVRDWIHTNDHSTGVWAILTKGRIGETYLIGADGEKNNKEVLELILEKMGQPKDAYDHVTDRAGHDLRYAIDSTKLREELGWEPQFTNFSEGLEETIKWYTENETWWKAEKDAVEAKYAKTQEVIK
T1 sequence (Q5XCG7 whole entry): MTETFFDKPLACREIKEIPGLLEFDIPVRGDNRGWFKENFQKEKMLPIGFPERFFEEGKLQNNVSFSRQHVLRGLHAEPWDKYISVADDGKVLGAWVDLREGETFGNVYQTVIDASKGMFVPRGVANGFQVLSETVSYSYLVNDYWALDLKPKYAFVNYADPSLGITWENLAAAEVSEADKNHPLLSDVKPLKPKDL
Chain of GacA (RmlD, dTDP‐4‐dehydrorhamnose reductase) (Q9A0G6 entry or part of it): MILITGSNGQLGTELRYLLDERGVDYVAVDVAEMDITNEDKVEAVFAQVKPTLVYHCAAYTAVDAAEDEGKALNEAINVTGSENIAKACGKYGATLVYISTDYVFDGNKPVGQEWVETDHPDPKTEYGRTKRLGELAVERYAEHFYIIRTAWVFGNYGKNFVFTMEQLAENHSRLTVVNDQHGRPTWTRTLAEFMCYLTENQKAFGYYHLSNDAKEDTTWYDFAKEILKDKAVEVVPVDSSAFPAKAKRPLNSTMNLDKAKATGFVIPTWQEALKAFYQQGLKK

As for `O=C(O)c1ccc(-c2ccc(Cl)cc2)o1` [Ri03, 5‐(4‐chlorophenyl)‐2‐furoic acid], the Kd in assay [1] is 300 µM; in assay [2], about 3000 µM; in assay [3], 200 µM.
